Where two headings read alike, the source gives them in different places.
Experiments:
RMS O-PDXs = conditions: previous preclinical phase 2 studies; ref Stewart et al., 2017; cited from earlier work
[1] = ref Goldman et al., 2013, cited from earlier work
[2] = Ganetespib plasma and tumor PK in tumor-bearing mice; format: in vivo, mouse; conditions: for half-life: female, athymic nude, mouse, iv, 150 mg/kg
[3] = system: RMS orthotopic xenografts SJRHB000026_X1, SJRHB012_Y, SJRHB013757_X2, SJRHB013759_X1; format: in vivo, mouse; conditions: single-agent groups
[4] = species not stated; cited from earlier work
[5] = system: RMS cell lines and primary cultures of O-PDX cells; experiment: General drug screening; format: cell-based, human; conditions: for in vitro activity in RMS O-PDX drug screening: primary cultures of RMS O-PDXs and cell lines
[6] = Preclinical phase 1 tolerability study; conditions: GSP 10 mg/kg, AZD1775 60 mg/kg twice daily, in combination regimens
[7] = Trametinib human plasma PK; format: in vivo; conditions: patients, standard calculations
in vivo [8] = conditions: female, athymic nude, mouse, po, 0.1 mg/kg
[9] = cited from earlier work; for mean plasma CL/F: population PK
[10] = system: RMS cell lines (RD cells); experiment: Cell cycle; format: cell-based, human; conditions: 1 μM AZD1775, 24 or 48 hr
[11] = mice, ref Parrish et al., 2015; cited from earlier work
[12] = ref palbociclib FDA NDA reviews, cited from earlier work
in vivo [13] = conditions: female, athymic nude
[14] = Palbociclib human plasma PK; format: in vivo; conditions: patients, 125 mg PO QD, standard calculations
[15] = mouse, in vivo
[16] = ref Patnaik et al., 2016, cited from earlier work
[17] = Abemaciclib plasma and tumor PK in tumor-bearing mice; conditions: female, athymic nude, mouse, po, 50 mg/kg
[18] = abemaciclib, mice; ref Raub et al., 2015; cited from earlier work

Cc1[nH]c2ccccc2c1CCNCc1ccc(/C=C/C(=O)NO)cc1 [panobinostat]
efficacy in vivo (RMS O-PDXs): failed to show efficacy in vivo

CC(C)c1cc(-c2n[nH]c(=O)n2-c2ccc3c(ccn3C)c2)c(O)cc1O [ganetespib]
recommended Phase 2 dose (RP2D) ([1]; IV once weekly for 3 weeks of a 4-week cycle): 200 mg/m^2
estimated human total plasma AUCinf ([1]; at 200 mg/m^2): approximately 7000 hr-ng/mL
major adverse events ([1]; patients): diarrhea and fatigue
increase in plasma Cmax for a 3-fold increase in dose ([2]; 50 to 150 mg/kg IV, 10 min after injection, data not shown): ~17 fold
half-life ([2]; plasma): 2.03 h
half-life ([2]; tumor): 8.42 h
murine equivalent dose (MED) providing a similar total plasma AUCinf ([2]; vs human 200 mg/m^2): 12.8 mg/kg
overall survival compared with placebo [3]: not different from placebo
plasma protein binding [4]: high
sensitivity of RMS cells relative to other pediatric solid tumors ([5]; RMS cell lines and primary cultures of O-PDX cells): more sensitive
in vitro activity in RMS O-PDX drug screening [5]: significant in vitro activity
tolerability [6]: well tolerated in all groups

CC(=O)Nc1cccc(-n2c(=O)n(C3CC3)c(=O)c3c(Nc4ccc(I)cc4F)n(C)c(=O)c(C)c32)c1 [trametinib]
estimated total plasma Cavg,ss [7]: about 15.1 ng/mL
Kp (in vivo [8]): 5.49
mean AUC ([9]; across genders, 2 mg PO QD, ref Ouellet et al., 2016): 365 ng·h/mL
maximum tolerated dose (MTD) ([9]; putative single agent): 2 mg PO QD
mean plasma CL/F ([9]; typical female patient, ref Ouellet et al., 2016): 4.91 L/h
mean plasma CL/F ([9]; typical male patient, ref Ouellet et al., 2016): 6.19 L/h

C=CCn1c(=O)c2cnc(Nc3ccc(N4CCN(C)CC4)cc3)nc2n1-c1cccc(C(C)(C)O)n1 [AZD1775]
cell cycle and nuclear effects [10]: G2/M phase arrest, mitotic catastrophe, and nuclear fragmentation
overall survival compared with placebo [3]: not different from placebo
in vitro activity in RMS O-PDX drug screening [5]: significant in vitro activity

CC(=O)c1c(C)c2cnc(Nc3ccc(N4CCNCC4)cn3)nc2n(C2CCCC2)c1=O [palbociclib]
apparent terminal half-life (T1/2), literature [11]: approximately 3.4 hr
estimated total plasma AUCtau at steady state ([12]; patients, 125 mg PO QD): 2080 ng·h/mL
mean plasma CL/F ([12]; typical patient, population PK): 60.2 L/h
back-estimated mouse plasma Cavg (in vivo [13]; 10 mg/kg): 76.9 ng/mL
murine equivalent dose (MED) (in vivo [13]; mouse): 10 mg/kg
CL/F (in vivo [13]; mouse, po, 16 mg/kg): 91.2 mL/min/kg
Kp (in vivo [13]; mouse, po, 16 mg/kg): ~6
half-life (in vivo [13]; mouse, po, 16 mg/kg): 2.61 h
estimated total plasma Cavg,ss [14]: about 85 ng/mL

CC(C)C[C@H](NC(=O)[C@H](Cc1ccccc1)NC(=O)c1cnccn1)B(O)O [bortezomib]
efficacy in vivo (RMS O-PDXs): failed to show efficacy in vivo

CCN1CCN(Cc2ccc(Nc3ncc(F)c(-c4cc(F)c5nc(C)n(C(C)C)c5c4)n3)nc2)CC1 [abemaciclib]
rounded and recommended MED ([15]; female, athymic nude): 7.5-15 mg/kg PO BID
plasma AUC lower than that reported by Tate ([15]; female, athymic nude, po, 50 mg/kg): ~ 3.8 fold
murine equivalent dose (MED) providing a similar total plasma AUC [15]: 14.4 mg/kg
geometric mean total plasma AUCtau at steady state ([16]; 200 mg PO BID): 3000 ng·h/mL
geometric mean trough concentration ([16]; 200 mg PO BID): 197 ng/mL
maximum tolerated dose (MTD) ([16]; Phase 1, single agent, continuous): 200 mg PO BID
half-life ([17]; plasma): 5.2 h
half-life ([17]; tumor): 5.98 h
mean in vitro fraction unbound in the plasma (Fu,p) [18]: 0.054

Reference: publication PMC6158019 (Cancer cell, 2018)
